pEC50: −log10 of the molar value.
Each compound was assayed against T1, human FSH receptor (Homo sapiens, UniProt P23945) (assay: Agonistic activity at the human FSH receptor expressed in CHO cells (CRE-luciferase reporter)). Settings: CHO cells stably transfected with human FSH receptor and CRE/luciferase reporter; tested 0.1 nM to 10 μM; read-out: EC50 (concentration of test compound causing half-maximal (50%) luciferase stimulation).
T1 construct: expressed in transfected cells; host or cells: Chinese Hamster Ovary (CHO) cells
T1 sequence (P23945 18-695): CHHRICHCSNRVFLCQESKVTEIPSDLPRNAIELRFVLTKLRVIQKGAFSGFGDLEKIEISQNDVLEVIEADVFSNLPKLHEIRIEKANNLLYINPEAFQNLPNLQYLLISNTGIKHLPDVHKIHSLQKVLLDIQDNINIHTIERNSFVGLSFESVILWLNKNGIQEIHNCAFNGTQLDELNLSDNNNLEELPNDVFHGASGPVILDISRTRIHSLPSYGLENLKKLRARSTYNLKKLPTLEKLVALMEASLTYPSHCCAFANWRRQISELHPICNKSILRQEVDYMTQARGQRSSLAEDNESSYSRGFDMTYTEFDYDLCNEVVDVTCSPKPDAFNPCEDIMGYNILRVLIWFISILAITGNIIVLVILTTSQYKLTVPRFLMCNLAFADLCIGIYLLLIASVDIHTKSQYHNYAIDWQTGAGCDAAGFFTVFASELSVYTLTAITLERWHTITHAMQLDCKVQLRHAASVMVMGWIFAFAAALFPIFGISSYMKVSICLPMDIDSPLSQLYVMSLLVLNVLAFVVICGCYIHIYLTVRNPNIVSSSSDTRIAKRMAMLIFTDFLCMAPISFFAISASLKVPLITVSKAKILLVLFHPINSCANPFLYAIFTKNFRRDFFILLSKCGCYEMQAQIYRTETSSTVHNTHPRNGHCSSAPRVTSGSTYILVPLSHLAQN
Type: cell-based
Experimental: Agonistic Activity of Compounds at the Human FSH Receptor Expressed in CHO Cells
Agonist activity of the compounds at the human FSH receptor was tested in Chinese Hamster Ovary (CHO) cells stably transfected with the human FSH receptor and cotransfected with a cAMP responsive element (CRE)/promotor directing the expression of a firefly luciferase reporter gene. Binding of the compound to the Gscoupled FSH receptor will result in an increase of cAMP, which in turn will induce an increased transactivation of the luciferase reporter construct. The luciferase activity was quantified using a luminescence counter. The compounds were tested in the concentration range of 0.1 nM to 10 μM. This assay was used to determine the EC50 (concentration of test compound causing half-maximal (50%) luciferase stimulation) and efficacy of the compounds compared to recombinant human FSH. For this, the software program XLfit (Excel version 2.0, built 30, ID Business Solutions Limited) was used.

Q: `CCCC1CC(=O)C2=C(C1)NC(C)=C(C#N)C2c1cc(Br)c(OCc2ccccc2NCC2CC2)c(OCC)c1` (stereo not drawn) [Example 62, 4-{3-Bromo-4-[2-(cyclopropylmethyl-amino)-benzyloxy]-5-ethoxy-phenyl}-2-methyl-5-oxo-7-propyl-1,4,5,6,7,8-hexahydro-quinoline-3-carbonitrile] was tested. Which pEC50 did it give?
A: Its pEC50 is over 8.00.

Q: With `CCCC1CC(=O)C2=C(C1)NC(C)=C(C#N)C2c1cc(Br)c(OCc2cccn2S(C)(=O)=O)c(OCC)c1` (stereo not drawn) [Example 51, 4-[3-Bromo-5-ethoxy-4-(1-methanesulfonyl-1H-pyrrol-2-ylmethoxy)-phenyl]-2-methyl-5-oxo-7-propyl-1,4,5,6,7,8-hexahydro-quinoline-3-carbonitrile] as the compound, how does the pEC50 read?
A: The pEC50 was over 8.00.

Q: With `CCCC1CC(=O)C2=C(C1)NC(C)=C(C#N)C2c1cc(Br)c(NCc2cccnc2)c(OCC)c1` (stereo not drawn) [Example 56, 4-{3-Bromo-5-ethoxy-4-[(pyridin-3-ylmethyl)-amino]-phenyl}-2-methyl-5-oxo-7-propyl-1,4,5,6,7,8-hexahydro-quinoline-3-carbonitrile] as the compound, how does the pEC50 read?
A: The pEC50 was over 8.00.

Q: With `CCC[C@@H]1CC(=O)C2=C(C1)NC(C)=C(C#N)[C@H]2c1cc(Br)c(OCc2cc(F)c(F)cc2NS(C)(=O)=O)c(OCC)c1` [Example 72, N-{2-[2-Bromo-4-((4R,7S)-3-cyano-2-methyl-5-oxo-7-propyl-1,4,5,6,7,8-hexahydro-quinolin-4-yl)-6-ethoxy-phenoxymethyl]-4,5-difluoro-phenyl}-methanesulfonamide] as the compound, how does the pEC50 read?
A: Its pEC50 is over 8.00.

Q: With `CCCC1CC(=O)C2=C(C1)NC(C)=C(C#N)C2c1cc(Br)c(OCc2ccc(C(=N)NC)cc2)c(OCC)c1` (stereo not drawn) [Example 54, 4-[2-Bromo-4-(3-cyano-2-methyl-5-oxo-7-propyl-1,4,5,6,7,8-hexahydro-quinolin-4-yl)-6-ethoxy-phenoxymethyl]-N-methyl-benzamidine] as the compound, how does the pEC50 read?
A: The pEC50 was over 8.00.

Q: How did the pEC50 turn out when `CCCC1CC(=O)C2=C(C1)NC(C)=C(C#N)C2c1cc(Br)c(OCc2cccc(NS(C)(=O)=O)c2)c(OCC)c1` (stereo not drawn) [Example 42, N-{3-[2-Bromo-4-(3-cyano-2-methyl-5-oxo-7-propyl-1,4,5,6,7,8-hexahydro-quinolin-4-yl)-6-ethoxy-phenoxymethyl]-phenyl}-methanesulfonamide] was run?
A: The pEC50 was over 8.00.

Q: With `CCCC1CC(=O)C2=C(C1)NC(C)=C(C#N)C2c1cc(Br)c(OCc2cccc(C(=O)N3CC=CCC3)c2)c(OCC)c1` (stereo not drawn) [Example 7, 4-{3-Bromo-4-[3-(3,6-dihydro-2H-pyridine-1-carbonyl)-benzyloxy]-5-ethoxy-phenyl}-2-methyl-5-oxo-7-propyl-1,4,5,6,7,8-hexahydro-quinoline-3-carbonitrile] as the compound, how does the pEC50 read?
A: Its pEC50 is over 8.00.

Q: `CCCC1CC(=O)C2=C(C1)NC(C)=C(C#N)C2c1cc(Br)c(OCc2cccc(NC(=O)c3cc(OC)c(OC)c(OC)c3)c2)c(OCC)c1` (stereo not drawn) [Example 1, N-{3-[2-Bromo-4-(3-cyano-2-methyl-5-oxo-7-propyl-1,4,5,6,7,8-hexahydro-quinolin-4-yl)-6-ethoxy-phenoxymethyl]-phenyl}-3,4,5-trimethoxy-benzamide] was tested. Which pEC50 did it give?
A: The pEC50 was over 8.00.

Q: How did the pEC50 turn out when `CCCC1CC(=O)C2=C(C1)NC(C)=C(C#N)C2c1cc(Br)c(OCc2ccccc2NC(=O)C2CC2)c(OCC)c1` (stereo not drawn) [Example 24, Cyclopropanecarboxylic acid {2-[2-bromo-4-(3-cyano-2-methyl-5-oxo-7-propyl-1,4,5,6,7,8-hexahydro-quinolin-4-yl)-6-ethoxy-phenoxymethyl]-phenyl}-amide] was run?
A: Its pEC50 is over 8.00.

Q: With `CCCC1CC(=O)C2=C(C1)NC(C)=C(C#N)C2c1cc(Br)c(OCc2cccc(NC(=O)CCN(CCOC)CCOC)c2)c(OCC)c1` (stereo not drawn) [Example 11, 3-[Bis-(2-methoxy-ethyl)-amino]-N-{3-[2-bromo-4-(3-cyano-2-methyl-5-oxo-7-propyl-1,4,5,6,7,8-hexahydro-quinolin-4-yl)-6-ethoxy-phenoxymethyl]-phenyl}-propionamide] as the compound, how does the pEC50 read?
A: Its pEC50 is over 8.00.

Q: How did the pEC50 turn out when `CCCC1CC(=O)C2=C(C1)NC(C)=C(C#N)C2c1cc(Br)c(OCc2cccc(OCC(=O)N3CCOCC3)c2)c(OCC)c1` (stereo not drawn) [Example 17, 4-{3-Bromo-5-ethoxy-4-[3-(2-morpholin-4-yl-2-oxo-ethoxy)-benzyloxy]-phenyl}-2-methyl-5-oxo-7-propyl-1,4,5,6,7,8-hexahydro-quinoline-3-carbonitrile] was run?
A: Its pEC50 is over 8.00.

Q: How did the pEC50 turn out when `CCCC1CC(=O)C2=C(C1)NC(C)=C(C#N)C2c1cc(Br)c(OCc2ccccc2NC(=O)NC)c(OCC)c1` (stereo not drawn) [Example 34, 1-{2-[2-Bromo-4-(3-cyano-2-methyl-5-oxo-7-propyl-1,4,5,6,7,8-hexahydro-quinolin-4-yl)-6-ethoxy-phenoxymethyl]-phenyl}-3-methyl-urea] was run?
A: Its pEC50 is over 8.00.

Q: `CCCC1CC(=O)C2=C(C1)NC(C)=C(C#N)C2c1cc(Br)c(OCc2ccccc2NC(=O)c2ccco2)c(OCC)c1` (stereo not drawn) [Example 22, Furan-2-carboxylic acid {2-[2-bromo-4-(3-cyano-2-methyl-5-oxo-7-propyl-1,4,5,6,7,8-hexahydro-quinolin-4-yl)-6-ethoxy-phenoxymethyl]-phenyl}-amide] was tested. Which pEC50 did it give?
A: The pEC50 was over 8.00.

Q: How did the pEC50 turn out when `CCCC1CC(=O)C2=C(C1)NC(C)=C(C#N)C2c1cc(Br)c(OCc2cccnc2NC(=O)OC)c(OCC)c1` (stereo not drawn) [Example 38, {3-[2-Bromo-4-(3-cyano-2-methyl-5-oxo-7-propyl-1,4,5,6,7,8-hexahydro-quinolin-4-yl)-6-ethoxy-phenoxymethyl]-pyridin-2-yl}-carbamic acid methyl ester] was run?
A: Its pEC50 is over 8.00.

Q: With `C=CC(=O)Nc1ccccc1COc1c(Br)cc(C2C(C#N)=C(C)NC3=C2C(=O)CC(CCC)C3)cc1OCC` (stereo not drawn) [Example 23, N-{2-[2-Bromo-4-(3-cyano-2-methyl-5-oxo-7-propyl-1,4,5,6,7,8-hexahydro-quinolin-4-yl)-6-ethoxy-phenoxymethyl]-phenyl}-acrylamide] as the compound, how does the pEC50 read?
A: Its pEC50 is over 8.00.

Q: With `CCCC1CC(=O)C2=C(C1)NC(C)=C(C#N)C2c1cc(Br)c(NCc2ccccc2NS(C)(=O)=O)c(OCC)c1` (stereo not drawn) [Example 58, N-(2-{[2-Bromo-4-(3-cyano-2-methyl-5-oxo-7-propyl-1,4,5,6,7,8-hexahydro-quinolin-4-yl)-6-ethoxy-phenylamino]-methyl}-phenyl)-methanesulfonamide] as the compound, how does the pEC50 read?
A: Its pEC50 is over 8.00.

Q: With `CCCC1CC(=O)C2=C(C1)NC(C)=C(C#N)C2c1cc(Br)c(OCc2cccc(OCC(=O)N(C)C)c2)c(OCC)c1` (stereo not drawn) [Example 15, 2-{3-[2-Bromo-4-(3-cyano-2-methyl-5-oxo-7-propyl-1,4,5,6,7,8-hexahydro-quinolin-4-yl)-6-ethoxy-phenoxymethyl]-phenoxy}-N,N-dimethyl-acetamide] as the compound, how does the pEC50 read?
A: Its pEC50 is over 8.00.

Q: How did the pEC50 turn out when `CCCC1CC(=O)C2=C(C1)NC(C)=C(C#N)C2c1cc(Br)c(OCc2ccccc2NC(=O)OC)c(OCC)c1` (stereo not drawn) [Example 25] was run?
A: Its pEC50 is over 8.00.

Q: `C=CCOC(=O)Nc1ccc(COc2c(Br)cc(C3C(C#N)=C(C)NC4=C3C(=O)CC(CCC)C4)cc2OCC)cc1` (stereo not drawn) [Example 50, {4-[2-Bromo-4-(3-cyano-2-methyl-5-oxo-7-propyl-1,4,5,6,7,8-hexahydro-quinolin-4-yl)-6-ethoxy-phenoxymethyl]-phenyl}-carbamic acid allyl ester] was tested. Which pEC50 did it give?
A: Its pEC50 is over 8.00.

Q: With `CCCC1CC(=O)C2=C(C1)NC(C)=C(C#N)C2c1cc(Br)c(OCc2cccc(NC(=O)CNCc3ccncc3)c2)c(OCC)c1` (stereo not drawn) [Example 3, N-{3-[2-Bromo-4-(3-cyano-2-methyl-5-oxo-7-propyl-1,4,5,6,7,8-hexahydro-quinolin-4-yl)-6-ethoxy-phenoxymethyl]-phenyl}-2-[(pyridin-4-ylmethyl)-amino]-acetamide] as the compound, how does the pEC50 read?
A: The pEC50 was over 8.00.

Q: How did the pEC50 turn out when `CCCC1CC(=O)C2=C(C1)NC(C)=C(C#N)C2c1cc(Br)c(OCc2cccc(NC(=O)CN3CCN(CCO)CC3)c2)c(OCC)c1` (stereo not drawn) [Example 5, N-{3-[2-Bromo-4-(3-cyano-2-methyl-5-oxo-7-propyl-1,4,5,6,7,8-hexahydro-quinolin-4-yl)-6-ethoxy-phenoxymethyl]-phenyl}-2-[4-(2-hydroxy-ethyl)-piperazin-1-yl]-acetamide] was run?
A: Its pEC50 is over 8.00.

— patent publication US8022218B2, “4-phenyl-5-oxo-1,4,5,6,7,8-hexahydroquinoline derivatives for the treatment of infertility” (N.V. Organon, priority 2005, dated 2011)
